Source: US8835134B2, “Cycloastragenol monoglucoside, preparation, pharmaceutical composition and application thereof” (Tianjin Institute of Pharmaceutical Research, priority 2007, dated 2014)

Tested on: anesthetized open-chest dogs
Test: Hemodynamics of anesthetized open-chest dogs, intravenous infusion
Assay type: in vivo, mongrel dogs
Conditions: 0.15 mg/kg iv
Method: The animals were anesthetized by intravenous injection of 30 mg/kg sodium pentobarbital, tracheally intubated, and mechanically ventilated with positive air pressure. Left thoracotomy was performed through the fourth intercostal space and the heart was suspended in a pericardial cradle, the aortic root was isolated and a probe of blood flow meter (12 or 14 mm in diameter) was fixed to measure the aortic blood flow as a representation of cardiac output (CO), the circumflex branch of left coronary artery was isolated and a probe of blood flow meter (2 or 2.5 mm in diameter) was fixed to measure the coronary blood flow (CBF). A polyethylene catheter filled with heparin physiological saline was inserted through cardiac apex into the left ventricle to measure the left ventricular pressure (LVP) and left ventricular end-diastolic pressure (LVEDP), Peak positive and peak negative first derivatives of the LVP (+ LVdp/dt and − LVdp/dt) were calculated with the Acknowledge software. The systolic blood pressure (SBP), diastolic blood pressure (DBP) and mean arterial pressure (MAP) were measured by polyethylene catheter via the femoral artery, ECG □ was measured by a AC-601G ECG amplifier. The above-mentioned analog signal was input into a data acquisition workstation (MP100, BIOPAC Systems, USA) to a computer running Acknowledge (version 3.7.1).
After surgery, various indexes before administration were recorded until the indexes were stable, and then intravenous infusion administration was conducted. Thirty dogs were divided into five groups (six dogs in each group), the experiment groups were given 0.15, 0.3, 0.6 mg/kg of ASP-[…] respectively, the normal control group was given 1 ml/kg of solvent, and the positive control group was given 0.3 mg/kg of astragaloside IV. The delivery volumes were 15 ml for each dog was and the delivery velocity was 1 ml/min. The indexes were recorded at 5, 10, 15, 20, 30, 45, 60, 90 and 120 mins after drug administration. At the end of experiment, the hearts were excised and weighted. The myocardial blood flow for per hectogram (CF), coronary resistance (CR), cardiac index (CI), left ventricular work (LVW) and total peripheral resistance (TPR) were calculated according to the following formulae: CF=CBF×[…]/heart weight CR=MAP/CF CI=CO/0.11×(body weight)^2/3 LVW=CO×(MAP−5)×1.052×0.0136 TPR=MAP×79.92/CO
Data are expressed as mean±SD ( x±s), the paired t-test was used to compare the significance between before and after administration, the unpaired t-test was adopted for comparison between groups.

CC(C)(O)[C@@H]1CC[C@](C)([C@H]2[C@@H](O)C[C@@]3(C)C4C[C@H](OC5OC(CO)C(O)C(O)C5O)C5C(C)(C)[C@@H](O)CC[C@@]56C[C@@]46CC[C@]23C)O1 (stereo partly drawn) [CMG, Cycloastragenol-6-O-β-D-glucoside]
LVW (20 min after administration): 1.04 ± 0.23 kg · m
LVW change vs before administration (20 min after administration): (−0.08 ± 0.21) kg · m
TPR (20 min after administration): 4882 ± 1971 dyn · s/cm^5
TPR change vs before administration (20 min after administration): (−268 ± 672) dyn · s/cm^5
dp/dt (20 min after administration): 1144 ± 452 mmHg/s
dp/dt change vs before administration (20 min after administration): (−6 ± 113) mmHg/s
−dp/dt (20 min after administration): −830 ± 277 mmHg/s
−dp/dt change vs before administration (20 min after administration): (58 ± 77) mmHg/s
CF (30 min after administration): 52.5 ± 16.9 ml/min/100 g
CF change vs before administration (30 min after administration): (−5.2 ± 7.9) ml/min/100 g
CI (30 min after administration): 1.98 ± 0.44 L/min/m^2
CI change vs before administration (30 min after administration): (−0.10 ± 0.27) L/min/m^2
CO (30 min after administration): 1.14 ± 0.24 L/min
CO change vs before administration (30 min after administration): (−0.07 ± 0.16) L/min
CR (30 min after administration): 1.38 ± 0.38 mmHg/ml/min/100 g
CR change vs before administration (30 min after administration): (0.02 ± 0.13) mmHg/ml/min/100 g
LVEDP (30 min after administration): 1.2 ± 2.4 mmHg
LVEDP change vs before administration (30 min after administration): (−0.58 ± 0.46) mmHg
LVP (30 min after administration): 100 ± 21 mmHg
LVP change vs before administration (30 min after administration): (−5.0 ± 7.3) mmHg
LVW (30 min after administration): 1.01 ± 0.26 kg · m
LVW change vs before administration (30 min after administration): (−0.11 ± 0.27) kg · m
TPR (30 min after administration): 5045 ± 2043 dyn · s/cm^5
TPR change vs before administration (30 min after administration): (−105 ± 498) dyn · s/cm^5
dp/dt (30 min after administration): 1170 ± 425 mmHg/s
dp/dt change vs before administration (30 min after administration): (20 ± 157) mmHg/s
−dp/dt (30 min after administration): −863 ± 258 mmHg/s
−dp/dt change vs before administration (30 min after administration): (25 ± 79) mmHg/s
CF (45 min after administration): 51.6 ± 17.1 ml/min/100 g
CF change vs before administration (45 min after administration): (−6.1 ± 8.1) ml/min/100 g
CI (45 min after administration): 2.02 ± 0.45 L/min/m^2
CI change vs before administration (45 min after administration): (−0.06 ± 0.43) L/min/m^2
CO (45 min after administration): 1.16 ± 0.22 L/min
CO change vs before administration (45 min after administration): (−0.04 ± 0.25) L/min
CR (45 min after administration): 1.42 ± 0.39 mmHg/ml/min/100 g
CR change vs before administration (45 min after administration): (0.07 ± 0.20) mmHg/ml/min/100 g
LVEDP (45 min after administration): 1.3 ± 2.2 mmHg
LVEDP change vs before administration (45 min after administration): (−0.5 ± 0.44) mmHg
LVP (45 min after administration): 101 ± 19 mmHg
LVP change vs before administration (45 min after administration): (−3.6 ± 4.6) mmHg
LVW (45 min after administration): 1.06 ± 0.31 kg · m
LVW change vs before administration (45 min after administration): (−0.06 ± 0.32) kg · m
TPR (45 min after administration): 4951 ± 1731 dyn · s/cm^5
TPR change vs before administration (45 min after administration): (−199 ± 925) dyn · s/cm^5
dp/dt (45 min after administration): 1164 ± 356 mmHg/s
dp/dt change vs before administration (45 min after administration): (14 ± 86) mmHg/s
−dp/dt (45 min after administration): −854 ± 259 mmHg/s
−dp/dt change vs before administration (45 min after administration): (34 ± 80) mmHg/s
CF (60 min after administration): 51.8 ± 15.0 ml/min/100 g
CF change vs before administration (60 min after administration): (−5.9 ± 9.9) ml/min/100 g
CI (60 min after administration): 1.92 ± 0.42 L/min/m^2
CI change vs before administration (60 min after administration): (−0.16 ± 0.37) L/min/m^2
CO (60 min after administration): 1.11 ± 0.21 L/min
CO change vs before administration (60 min after administration): (−0.10 ± 0.23) L/min
CR (60 min after administration): 1.38 ± 0.36 mmHg/ml/min/100 g
CR change vs before administration (60 min after administration): (0.03 ± 0.16) mmHg/ml/min/100 g
LVEDP (60 min after administration): 1.3 ± 2.1 mmHg
LVEDP change vs before administration (60 min after administration): (−0.46 ± 0.41) mmHg
LVP (60 min after administration): 101 ± 19 mmHg
LVP change vs before administration (60 min after administration): (−4.1 ± 4.9) mmHg
LVW (60 min after administration): 1.00 ± 0.34 kg · m
LVW change vs before administration (60 min after administration): (−0.12 ± 0.33) kg · m
TPR (60 min after administration): 5112 ± 1599 dyn · s/cm^5
TPR change vs before administration (60 min after administration): (−38 ± 811) dyn · s/cm^5
dp/dt (60 min after administration): 1126 ± 375 mmHg/s
dp/dt change vs before administration (60 min after administration): (−24 ± 57) mmHg/s
−dp/dt (60 min after administration): −841 ± 249 mmHg/s
−dp/dt change vs before administration (60 min after administration): (47 ± 92) mmHg/s
CF (90 min after administration): 53.7 ± 14.3 ml/min/100 g
CF change vs before administration (90 min after administration): (−4.0 ± 10.4) ml/min/100 g
CI (90 min after administration): 1.83 ± 0.36 L/min/m^2
CI change vs before administration (90 min after administration): (−0.25 ± 0.39) L/min/m^2
CO (90 min after administration): 1.06 ± 0.20 L/min
